This is an account of results in patent US20240270744A1 (Hoffmann-La Roche Inc., priority 2021, published 2024).

Test [1] addresses human GABAA α5β2γ1 receptor (Homo sapiens (Human), UniProt P31644+Q8N1C3). The experiment in a line: Radioligand binding assay, competition for [3H]RO7239181, γ1-containing GABAA subtypes. The note with it: Table 1; [3H]RO7239181 displacement, membranes from HEK293F cells, mean of two determinations. As for the experimental part:
The affinity of compounds at GABAA γ1 subunit-containing receptors was measured by competition for [^3H]RO7239181 (67.3 Ci/mmol; Roche) binding to membranes from HEK293F cells (ThermoFisher R79007) expressing human (transiently transfected) receptors of composition α5β2γ1, α2β2γ1, α1β2γ1. For better protein expression of the α2 subunit-containing receptors, the 28 amino acid long signal peptide (Met1 to Ala28) of the human GABAA α2 subunit was substituted by the 31 amino acid long signal peptide (Met1 to Ser31) of human GABAA α5 subunit.
(§1) Harvested pellets from HEK293F cells expressing the different GABAA receptor subtypes were resuspended in Mannitol Buffer pH 7.2-7.4 (Mannitol 0.29 M, Triethylamine 10 mM, Acetic acid 10 mM, EDTA 1 mM plus protease inhibitors (20 tablets Complete, Roche Diagnostics Cat. No. 05 056 489 001 per liter)), washed two times and then resuspended at 1:10 to 1:15 dilution in the same buffer. Cell disruption was performed by stirring the suspension in a Parr vessel #4637 at 435 psi for 15 minutes, and then the suspensions were centrifuged at 1000×g for 15 minutes at 4° C. (Beckman Avanti J-HC: rotor JS-4.2). The supernatant (S1) was transferred in a 21 Schott flask and the pellet (P1) was resuspended with Mannitol Buffer up to 175 ml. The resuspended pellet was transferred into a 250 ml Corning centrifugal beaker and centrifuged at 1500×g for 10 minutes at 4° C. (Beckman Avanti J-HC: rotor JS-4.2). The supernatant (S1) was then transferred in the 21 Schott flask and the pellet was discarded. The supernatants (S1) were centrifuged in 500 ml Beckman polypropylene centrifugal beaker at 15′000×g for 30 minutes at 4° C. (Beckman Avanti J-20 XP; rotor JLA-10.500). The pellet (P2) was resuspended with Mannitol Buffer 1:1 and frozen at −80° C. The supernatant (S2) was centrifuged in 100 ml Beckman polypropylene centrifugal tubes at 48000×g for 50 minutes at 4° C. (Beckman Avanti J-20 XP; rotor JA-18). The supernatant (S3) was discarded and the pellet (P3) was resuspended with 1:1 Mannitol Buffer. The P2 and P3 protein concentration was determined with the BIORAD Standard assay method with bovine serum albumin as standard and measured on the NANO-Drop 1000. The membrane suspension was aliquots (500 μl per tube) and stored at −80° C. until required.
(§2) Membrane homogenates were resuspended and polytronised (Polytron PT1200E Kinematica AG) in Potassium Phosphate 10 mM, KCl 100 mM binding buffer at pH 7.4 to a final assay concentration determined with a previous experiment.
Radioligand binding assays were carried out in a volume of 200 μL (96-well plates) which contained 100 μL of cell membranes, [3H]RO7239181 at a concentration of 1.5 nM (α5β2γ1) or 20-30 nM (α1β2γ1, α2β2γ1) and the test compound in the range of [0.3-10000]=10^−9 M. Nonspecific binding was defined by 10×10^−6 (α5β2γ1) and 30×10^−6 M RO7239181 and typically represented less than 5% (α5β2γ1) and less than 20% (β1β2γ1, α2β2γ1) of the total binding. Assays were incubated to equilibrium for 1 hour at 4° C. and then, membranes were filtered onto unifilter (96-well white microplate with bonded GF/C filters preincubated 20-50 minutes in 0.3% Polyethylenimine) with a Filtermate 196 harvester (Packard BioScience) and washed 4 times with cold Potassium Phosphate 10 mM pH 7.4, KCl 100 mM binding buffer. After anhydrousing, filter-retained radioactivity was detected by liquid scintillation counting. Ki values were calculated using Excel-Fit (Microsoft) and are the means of two determinations.
Representative test results, obtained by the above described assay measuring binding affinity to HEK293 cells expressing human (h) receptors, are shown in the Table 1.

Test [2] deals with human GABAA α2β2γ1 receptor (Homo sapiens (Human), UniProt P47869+Q8N1C3). Described as above. To be noted: for γ2/γ1 Selectivity Ratio: Ki α1β3γ2 (nM)/Ki α2β2γ1 (nM); for LogSel: Log of the γ2/γ1 Ki ratio. The procedure: The affinity of compounds at GABAA γ1 subunit-containing receptors was measured by competition for [^3H]RO7239181 (67.3 Ci/mmol; Roche) binding to membranes from HEK293F cells (ThermoFisher R79007) expressing human (transiently transfected) receptors of composition α5β2γ1, α2β2γ1, α1β2γ1.
as §1, §2
Assays were incubated to equilibrium for 1 hour at 4° C. and then, membranes were filtered onto unifilter (96-well white microplate with bonded GF/C filters preincubated 20-50 minutes in 0.3% Polyethylenimine) with a Filtermate 196 harvester (Packard BioScience) and washed 4 times with cold Potassium Phosphate 10 mM pH 7.4, KCl 100 mM binding buffer. After anhydrousing, filter-retained radioactivity was detected by liquid scintillation counting. Ki values were calculated using Excel-Fit (Microsoft) and are the means of two determinations.

The mark [3] stands for this setting: Ki h-GABAA α2β2γ1, Table 1, [3H]RO7239181 displacement, membranes from HEK293F cells, mean of two determinations.
Where [4] appears, read: Ki h-GABAA α2β2γ1, Table 2, [3H]RO7239181 displacement.

Read-outs that look alike come from different tables or passages of the source.

A word on the Ki: it is the equilibrium dissociation constant of an inhibitor or competing ligand from its target. For the molecule `C[C@@H]1N=C(c2c(F)cccc2F)c2c(cnc(C(F)(F)F)c2Cl)-n2nc(C(=O)NCC3(O)CC3)nc21` [Example 22, (7S)-11-chloro-9-(2,6-difluorophenyl)-N-[(1-hydroxycyclopropyl)methyl]-7-methyl-12-(trifluoromethyl)-2,3,5,8,13-pentazatricyclo[8.4.0.02,6]tetradeca-1(10),3,5,8,11,13-hexaene-4-carboxamide], the Ki in test [1] came to 6.4 nM; in test [2] (setting [3]) it was 43.2 nM; in test [2] (setting [4]) it was 43.2 nM. In addition, the “γ2/γ1 Selectivity Ratio” value in test [2] (Table 1) worked out at 245. For the same molecule, the LogSel in test [2] (Table 1) was 2.39.
On to `Cc1ncc2c(c1Cl)C(c1c(F)cccc1F)=N[C@@H](C)c1nnc(C)n1-2` [Example 3, (7S)-11-chloro-9-(2,6-difluorophenyl)-3,7,12-trimethyl-2,4,5,8,13-pentazatricyclo[8.4.0.02,6]tetradeca-1(10),3,5,8,11,13-hexaene], for which the Ki amounted to 4.7 nM in test [1], 51.6 nM in test [2] (setting [3]) and 51.6 nM in test [2] (setting [4]). For the same molecule, in test [2] (Table 1), the “γ2/γ1 Selectivity Ratio” value stood at 35. The LogSel in test [2] (Table 1) came out at 1.54.
For `C[C@@H]1N=C(c2c(F)cccc2F)c2c(cnc(C(F)(F)F)c2Cl)-n2nc(NC(=O)C3COC3)nc21` [Example 12, N-[(7S)-11-chloro-9-(2,6-difluorophenyl)-7-methyl-12-(trifluoromethyl)-2,3,5,8,13-pentazatricyclo[8.4.0.02,6]tetradeca-1(10),3,5,8,11,13-hexaen-4-yl]oxetane-3-carboxamide], the Ki in test [1] is 5.2 nM; in test [2] (setting [3]), 69.2 nM; in test [2] (setting [4]), 69.2 nM. Moreover, the “γ2/γ1 Selectivity Ratio” value in test [2] (Table 1) was 178. Moreover, in test [2] (Table 1), the LogSel is 2.25.
For the molecule `C[C@@H]1N=C(c2c(F)cccc2F)c2c(cnc(C(F)(F)F)c2Cl)-n2nc(N3CCCC3=O)nc21` [Example 13, 1-[(7S)-11-chloro-9-(2,6-difluorophenyl)-7-methyl-12-(trifluoromethyl)-2,3,5,8,13-pentazatricyclo[8.4.0.02,6]tetradeca-1(10),3,5,8,11,13-hexaen-4-yl]pyrrolidin-2-one], the Ki in test [1] came out at 3.1 nM; in test [2] (setting [3]), 32 nM; in test [2] (setting [4]), 32 nM. Also, the “γ2/γ1 Selectivity Ratio” value in test [2] (Table 1) was found to be 166. In test [2] (Table 1), the LogSel is on record as 2.22.
Regarding `C[C@@H]1N=C(c2c(F)cccc2F)c2c(cnc(C(F)(F)F)c2Cl)-n2nc(C(=O)NCC(C)(C)O)nc21` [Example 21, (7S)-11-chloro-9-(2,6-difluorophenyl)-N-(2-hydroxy-2-methyl-propyl)-7-methyl-12-(trifluoromethyl)-2,3,5,8,13-pentazatricyclo[8.4.0.02,6]tetradeca-1(10),3,5,8,11,13-hexaene-4-carboxamide], the values for the inhibition constant Ki in test [1], in test [2] (setting [3]) and in test [2] (setting [4]) were 10.7 nM, 72.3 nM and 72.3 nM, respectively. For the same molecule, in test [2] (Table 1), the “γ2/γ1 Selectivity Ratio” value amounted to 156. Also, in test [2] (Table 1), the LogSel turned out to be 2.19.
Turning to `Cc1nnc2n1-c1cnc(C3CC3)c(Cl)c1C(c1c(F)cccc1F)=N[C@H]2C` [Example 2, (7S)-11-chloro-12-cyclopropyl-9-(2,6-difluorophenyl)-3,7-dimethyl-2,4,5,8,13-pentazatricyclo[8.4.0.02,6]tetradeca-1(10),3,5,8,11,13-hexaene], the Ki in test [1] was found to be 12.6 nM; in test [2], 143 nM; in test [2] (read-out: Ki h-GABAA α2β2γ1, Table 2, [3H]RO7239181 displacement), 143 nM. In test [2] (Table 1), the “γ2/γ1 Selectivity Ratio” value was 23. The LogSel in test [2] (Table 1) worked out at 1.36.
Take `Cc1nc2n(n1)-c1cnc(C(F)(F)F)c(Cl)c1C(c1c(F)cccc1F)=N[C@H]2C` [Example 5]: the Ki in test [1] is 1.7 nM; in test [2] (Table 1, [3H]RO7239181 displacement, membranes from HEK293F cells, mean of two determinations, read-out: Ki h-GABAA α2β2γ1), 40 nM; in test [2] (Table 2, [3H]RO7239181 displacement, read-out: Ki h-GABAA α2β2γ1) it was 40 nM. In test [2] (Table 1), the “γ2/γ1 Selectivity Ratio” value was 118. Also, the LogSel in test [2] (Table 1) turned out to be 2.07.
Turning to `C[C@@H]1N=C(c2c(F)cccc2F)c2c(cnc(C(F)(F)F)c2Cl)-n2c1nc1c2CCC1` [Example 20, (10S)-6-chloro-8-(2,6-difluorophenyl)-10-methyl-5-(trifluoromethyl)-1,4,9,12-tetrazatetracyclo[9.6.0.02,7.013,17]heptadeca-2(7),3,5,8,11,13(17)-hexaene], the Ki in test [1] was found to be 4.9 nM; in test [2] (setting [3]), 11.8 nM; in test [2] (setting [4]), 15.1 nM. For the same molecule, the “γ2/γ1 Selectivity Ratio” value in test [2] (Table 1) worked out at 92. Moreover, the LogSel in test [2] (Table 1) came out at 1.96.
In the same order, the values of `C[C@@H]1N=C(c2c(F)cccc2F)c2c(cnc(C(F)(F)F)c2Cl)-n2nc(C(=O)N3CC(F)C3)nc21` [Example 7, [(7S)-11-chloro-9-(2,6-difluorophenyl)-7-methyl-12-(trifluoromethyl)-2,3,5,8,13-pentazatricyclo[8.4.0.02,6]tetradeca-1(10),3,5,8,11,13-hexaen-4-yl]-(3-fluoroazetidin-1-yl)methanone] are 3.5 nM, 20.2 nM, 20.2 nM, 253 and 2.40.
For `Cc1nnc2n1-c1cnc(Cl)c(Cl)c1C(c1c(F)cccc1F)=N[C@H]2C` [Example 1, (7S)-11,12-dichloro-9-(2,6-difluorophenyl)-3,7-dimethyl-2,4,5,8,13-pentazatricyclo[8.4.0.02,6]tetradeca-1(10),3,5,8,11,13-hexaene], the Ki amounted to 2.4 nM in test [1], 31.7 nM in test [2] (setting [3]) and 31.7 nM in test [2] (setting [4]). Further, in test [2] (Table 1), the “γ2/γ1 Selectivity Ratio” value amounted to 34. Further, the LogSel in test [2] (Table 1) was determined as 1.53.
As for `C[C@@H]1N=C(c2c(F)cccc2F)c2c(cnc(C(F)(F)F)c2Cl)-n2nc(C(=O)N3CCC3)nc21` [Example 6, azetidin-1-yl-[(7S)-11-chloro-9-(2,6-difluorophenyl)-7-methyl-12-(trifluoromethyl)-2,3,5,8,13-pentazatricyclo[8.4.0.02,6]tetradeca-1(10),3,5,8,11,13-hexaen-4-yl]methanone], the Ki in test [1] is 11.6 nM; in test [2] (setting [3]), 45.2 nM; in test [2] (setting [4]), 45.2 nM. Moreover, the “γ2/γ1 Selectivity Ratio” value in test [2] (Table 1) is on record as 227. Besides, the LogSel in test [2] (Table 1) is given as 2.36.
